Data as given in paper PMC4657098, “A Review of the Updated Pharmacophore for the Alpha 5 GABA(A) Benzodiazepine Receptor Model” (International Journal of Medicinal Chemistry, 2015).
Where two headings read alike, the source gives them in different places.

Tests used:
α5β3γ2 GABAA/BzR [1] = biological target: T1, α5β3γ2 GABAA/BzR (Homo sapiens, UniProt P18507+P31644); parameters: expressed in transfected cells; host or cells: LTK cells (given for XLi-093 only); conditions: read-out: Affinity Ki α5; cited from earlier work
α1β3γ2 GABAA/BzR [2] = biological target: T2, α1β3γ2 GABAA/BzR (Homo sapiens, UniProt P14867+P18507); parameters: expressed in transfected cells; host or cells: LTK cells (given for XLi-093 only); conditions: read-out: Affinity Ki α1; cited from earlier work
α2β3γ2 GABAA/BzR [3] = biological target: T3, α2β3γ2 GABAA/BzR (Homo sapiens, UniProt P18507+P47869); parameters: expressed in transfected cells; host or cells: LTK cells (given for XLi-093 only); conditions: read-out: Affinity Ki α2; cited from earlier work
α6β3γ2 GABAA/BzR [4] = biological target: T4, α6β3γ2 GABAA/BzR (Homo sapiens, UniProt P18507+Q16445); parameters: expressed in transfected cells; host or cells: LTK cells (given for XLi-093 only); conditions: read-out: Affinity Ki α6; cited from earlier work
α3β3γ2 GABAA/BzR [5] = biological target: T5, α3β3γ2 GABAA/BzR (Homo sapiens, UniProt P18507+P34903); parameters: expressed in transfected cells; host or cells: LTK cells (given for XLi-093 only); conditions: read-out: Affinity Ki α3; cited from earlier work
[6] = system: Bz BS of GABA(A) receptors; conditions: cited from earlier work
α1β3γ2 GABAA/BzR [7] = biological target: T2, α1β3γ2 GABAA/BzR; experiment: Competition binding to HEK cell membranes, α1β3γ2; parameters: expressed in transfected cells
α5β3γ2 GABAA/BzR [8] = biological target: T1, α5β3γ2 GABAA/BzR; experiment: Competition binding to HEK cell membranes, α5β3γ2; parameters: expressed in transfected cells
α6β3γ2 GABAA/BzR [9] = biological target: T4, α6β3γ2 GABAA/BzR; experiment: Competition binding to HEK cell membranes, α6β3γ2; parameters: expressed in transfected cells
α3β3γ2 GABAA/BzR [10] = biological target: T5, α3β3γ2 GABAA/BzR; experiment: Competition binding to HEK cell membranes, α3β3γ2; parameters: expressed in transfected cells
α2β3γ2 GABAA/BzR [11] = biological target: T3, α2β3γ2 GABAA/BzR; experiment: Competition binding to HEK cell membranes, α2β3γ2; parameters: expressed in transfected cells
α4β3γ2 GABAA/BzR = biological target: T6, α4β3γ2 GABAA/BzR (Homo sapiens, UniProt P18507+P48169); experiment: biochemical; assay type: binding
T6 construct: expressed in transfected cells; host or cells: LTK cells (given for XLi-093 only)

| Structure (SMILES) | Ki (α1β3γ2 GABAA/BzR [7]; read-out: Ki α1) [nM] | Ki (α5β3γ2 GABAA/BzR [8]; read-out: Ki α5) [nM] | Ki (α6β3γ2 GABAA/BzR [9]; read-out: Ki α6) [nM] | Ki (α3β3γ2 GABAA/BzR [10]; read-out: Ki α3) [nM] | Ki (α2β3γ2 GABAA/BzR [11]; read-out: Ki α2) [nM] | Ki (α4β3γ2 GABAA/BzR; read-out: Ki α4) [nM] | other results |
| --- | --- | --- | --- | --- | --- | --- | --- |
| CC(C)(C)OC(=O)c1cc2c(cn1)[nH]c1ccc(-c3cccs3)cc12 [35(WYS12)] |  |  |  |  |  |  | Ki (α5β3γ2 GABAA/BzR [1]): 2860 nM; Ki (α1β3γ2 GABAA/BzR [2]): 37 nM; Ki (α2β3γ2 GABAA/BzR [3]): 166 nM; Ki (α6β3γ2 GABAA/BzR [4]): 5000 nM; Ki (α3β3γ2 GABAA/BzR [5]): 314 nM |
| COC(=O)c1cc2c(cn1)[nH]c1ccccc12 [-CCM, methyl beta-carboline-3-carboxylate] |  |  |  |  |  |  | modulation ([6]; Supplement Table 1): inverse agonist |
| CCOC(=O)c1cc2c(cn1)[nH]c1ccccc12 [BCCE, reference compound] | 1.2 |  |  |  |  |  | modulation [6]: inverse agonist |
| Cc1nnc2ccc(-c3cccc(C(F)(F)F)c3)nn12 [CL-218,872] |  |  |  |  |  |  | modulation ([6]; Supplement Table 1): partial agonist |
| CCCC(=O)c1cc2c(cn1)[nH]c1ccc(F)cc12 [CM-A57] | 3.7 | 254 | 1000 | 40 | 27 |  | Ki (α5β3γ2 GABAA/BzR [1]): 254 nM; Ki (α1β3γ2 GABAA/BzR [2]): 3.7 nM; Ki (α2β3γ2 GABAA/BzR [3]): 27 nM; Ki (α6β3γ2 GABAA/BzR [4]): > 2500 nM; Ki (α3β3γ2 GABAA/BzR [5]): 40 nM |
| CC(C)(C)OC(=O)c1cc2c(cn1)[nH]c1ccc(C(C)(C)C)cc12 [CM-A82a] | 2.78 | 7.49 |  | 24.5 | 8.93 |  | Ki (α5β3γ2 GABAA/BzR [8]; Ki α5): 7.49 nM; Ki (α6β3γ2 GABAA/BzR [9]; Ki α6): 1000 nM; Ki (α5β3γ2 GABAA/BzR [1]): 7.49 nM; Ki (α4β3γ2 GABAA/BzR): 1000 nM; Ki (α3β3γ2 GABAA/BzR [10]; Ki α3): 24.5 nM; Ki (α1β3γ2 GABAA/BzR [2]): 2.78 nM; Ki (α1β3γ2 GABAA/BzR [7]; Ki α1): 2.78 nM; Ki (α2β3γ2 GABAA/BzR [3]): 8.93 nM; Ki (α3β3γ2 GABAA/BzR [5]): 24.5 nM; Ki (α2β3γ2 GABAA/BzR [11]; Ki α2): 8.93 nM |
| CC(C)(C)OC(=O)c1cc2c(cn1)[nH]c1ccc(F)cc12 [CM-A87] | 1.62 | 4.61 |  | 14.7 | 4.54 |  | Ki (α5β3γ2 GABAA/BzR [8]; Ki α5): 4.61 nM; Ki (α6β3γ2 GABAA/BzR [9]; Ki α6): 1000 nM; Ki (α5β3γ2 GABAA/BzR [1]): 4.61 nM; Ki (α4β3γ2 GABAA/BzR): 1000 nM; Ki (α3β3γ2 GABAA/BzR [10]; Ki α3): 14.7 nM; Ki (α1β3γ2 GABAA/BzR [2]): 1.62 nM; Ki (α1β3γ2 GABAA/BzR [7]; Ki α1): 1.62 nM; Ki (α2β3γ2 GABAA/BzR [3]): 4.54 nM; Ki (α3β3γ2 GABAA/BzR [5]): 14.7 nM; Ki (α2β3γ2 GABAA/BzR [11]; Ki α2): 4.54 nM |
| COc1ccc2c(c1)C(=O)N1CCC[C@H]1c1c(C(=O)OCc3ccccc3)ncn1-2 [CM-E10] | 23 | 0.51 | 96 | 14 | 26 | 215 |  |
| COc1ccc2c(c1)C(=O)N1CCCC1c1c(C(=O)OCC(C)C)ncn1-2 (stereo not drawn) [CM-E11] | 333 | 14 | 750 | 161 | 308 | 394 |  |
| CN1C(=O)CN=C(c2ccccc2F)c2cc([N+](=O)[O-])ccc21 [FLUNITRAZEPAM, flunitrazepam] |  |  |  |  |  |  | modulation [6]: agonist |
| O=C(OCC(F)(F)F)c1cc2c(cn1)[nH]c1ccccc12 [MMB-II-74] | 3 | 126 | 1000 | 41.7 | 24.5 | 500 |  |
| CCC(OC(=O)c1ncn2c1C1CCCN1C(=O)c1cc(Br)ccc1-2)C(F)(F)F (stereo not drawn) [MMB-II-87] | 200 | 5.4 | 333 | 107 | 333 | 109 |  |
| CC(C)OC(=O)c1ncn2c1[C@@H]1CCCN1C(=O)c1cc(Br)ccc1-2 [MMB-II-90] | 20 | 0.25 | 36 | 5.7 | 24 | 9 |  |
| CC(OC(=O)c1ncn2c1C1CCCN1C(=O)c1ccccc1-2)C(F)(F)F (stereo not drawn) [MMB-III-14] | 13 | 1.1 | 333 | 6.9 | 13 | 333 |  |
| CC(C)OC(=O)c1ncn2c1[C@@H]1CCCN1C(=O)c1ccccc1-2 [MMB-III-016] | 3 | 0.26 | 211 | 2 | 1.97 | 1070 |  |
| O=C(OC(C(F)(F)F)C(F)(F)F)c1ncn2c1C1CCCN1C(=O)c1ccccc1-2 (stereo not drawn) [MMB-III-018] | 117 | 14 | 976 | 78 | 140 | 3500 |  |
| C#Cc1ccc2c(c1)C(c1ccccc1F)=NCC(=O)N2C [OMB-18] | 3.9 | 0.8 | 5 | 3.4 | 1.2 | 1730 |  |
